Test results reported in patent US20040171073A1, “Compounds for modulation of cholesterol transport” (Massachusetts Institute of Technology, priority 2002, published 2004).

Target: T1, murine SR-BI (Mus musculus, UniProt Q61009)
T1 construct: expressed in transfected cells; host or cells: ldlA-7 (LDL receptor deficient Chinese hamster ovary cells)
T1 sequence (Q61009 1-509): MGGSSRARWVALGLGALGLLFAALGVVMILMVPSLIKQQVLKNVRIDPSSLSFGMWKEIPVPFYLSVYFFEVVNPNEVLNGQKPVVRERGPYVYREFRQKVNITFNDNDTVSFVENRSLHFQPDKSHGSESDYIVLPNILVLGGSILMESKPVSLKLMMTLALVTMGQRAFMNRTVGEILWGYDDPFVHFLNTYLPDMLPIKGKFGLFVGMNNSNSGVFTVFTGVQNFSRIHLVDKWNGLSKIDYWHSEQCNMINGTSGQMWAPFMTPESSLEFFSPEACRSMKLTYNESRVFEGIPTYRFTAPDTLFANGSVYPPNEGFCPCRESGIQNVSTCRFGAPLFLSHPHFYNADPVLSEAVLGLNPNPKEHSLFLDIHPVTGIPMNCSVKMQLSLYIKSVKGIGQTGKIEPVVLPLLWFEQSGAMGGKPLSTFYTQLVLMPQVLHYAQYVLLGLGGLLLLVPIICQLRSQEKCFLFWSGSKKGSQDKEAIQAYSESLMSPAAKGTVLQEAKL
Experiment: Uptake of DiI from DiI-HDL by ldlA[mSR-BI] cells (high throughput screen and concentration dependence)
Assay type: cell-based

[1] = DiI uptake from DiI-HDL, compounds at nominal 10 micromolar, ldlA[mSR-BI] cells

## O=C(O)CCNC(=O)c1ccccc1 [MIT 9952-94]
  ENDOHDL Test 1: 1.21
  ENDOHDL Test 2: 1.22

## O=C(/C=C/C=C(Cl)Cl)c1ccc2c(c1)OCO2 [MIT 9952-65]
  ENDOHDL Test 1: 1.29
  ENDOHDL Test 2: 1.24

## Br.CCOC(=O)c1c(CSC(=N)N)n(C)c2cc(Br)c(OC(C)=O)cc12 [MIT 9952-146]
  ENDOHDL Test 1: 0.62
  ENDOHDL Test 2: 0.71

## Cc1cccc(C(=O)Nc2cccc(-c3nc4c(C)cccc4o3)c2)c1 [MIT 9952-236]
  ENDOHDL Test 1: 0.57
  ENDOHDL Test 2: 0.38

## COc1ccc(COCC(Cl)CN2CCCCC2)cc1OC.Cl (stereo not shown) [MIT 9952-159]
  ENDOHDL Test 1: 1.28
  ENDOHDL Test 2: 1.23

## CCOC(=O)C1=C(C)NC(=S)N(C=O)C1c1ccccc1 (stereo not shown) [MIT 9952-297]
[1]
  ENDOHDL Test 1: 0.56
  ENDOHDL Test 2: 0.46

## Nc1nc(-c2ccccc2)nc2sc3c(c12)CCCC3 [MIT 9952-15]
  ENDOHDL Test 1: 0.55
  ENDOHDL Test 2: 0.61

## Clc1ccc(/N=C/c2ccc3c(c2)OCO3)nc1 [MIT 9952-176]
  ENDOHDL Test 1: 1.36
  ENDOHDL Test 2: 1.17

## O=C(Cl)c1ccccc1NS(=O)(=O)/C=C/c1ccccc1 [MIT 9952-110]
  ENDOHDL Test 1: 1.17
  ENDOHDL Test 2: 1.33

## O=[N+]([O-])c1ccc(N/N=C(/CS(=O)(=O)c2ccccc2)c2ccccc2)c([N+](=O)[O-])c1 [MIT 9952-200]
  ENDOHDL Test 1: 0.73
  ENDOHDL Test 2: 0.8

## O=C1CC(N2CCOCC2)C(=O)N1c1ccc(Br)cc1 (stereo not shown) [MIT 9952-17]
  ENDOHDL Test 1: 1.32
  ENDOHDL Test 2: 1.17

## Cc1cc(C)c(CO)c(C)c1/C=N/Nc1ccc([N+](=O)[O-])cc1 [MIT 9952-283]
[1]
  ENDOHDL Test 1: 0.53
  ENDOHDL Test 2: 0.48

## O=C(O/N=C/c1ccc([N+](=O)[O-])o1)c1ccccc1 [MIT 9952-195]
  ENDOHDL Test 1: 1.22
  ENDOHDL Test 2: 1.35

## CCOC(=O)c1c(NC(=O)c2ccccc2)sc(NC(=O)c2ccccc2)c1C(=O)OCC [MIT 9952-215]
  ENDOHDL Test 1: 0.57
  ENDOHDL Test 2: 0.53

## Cc1ccc(N2SC(NS(=O)(=O)c3ccc(C)cc3)N=C2c2ccccc2)cc1 (stereo not shown) [MIT 9952-207]
  ENDOHDL Test 1: 1.28
  ENDOHDL Test 2: 1.19

## O=C(NC(NC(=S)Nc1cccc([N+](=O)[O-])c1)C(Cl)(Cl)Cl)C(c1ccccc1)c1ccccc1 (stereo not shown) [MIT 9952-327]
[1]
  ENDOHDL Test 1: 0.4
  ENDOHDL Test 2: 0.45

## O=C(Nc1ccc(-c2nc3cc(NC(=O)c4ccccc4[N+](=O)[O-])ccc3o2)cc1)c1ccccc1[N+](=O)[O-] [MIT 9952-339]
[1]
  ENDOHDL Test 1: 0.58
  ENDOHDL Test 2: 0.54

## O=C(NNC(=O)c1cccc2ccccc12)c1ccc(NC(=O)c2cccc3ccccc23)cc1 [MIT 9952-329]
[1]
  ENDOHDL Test 1: 0.57
  ENDOHDL Test 2: 0.53

## O=C(N/N=C\c1ccccc1O)c1ccc(O)cc1 [MIT 9952-170]
  ENDOHDL Test 1: 0.54
  ENDOHDL Test 2: 0.54

## O=C(Cl)c1ccc2c(c1)C(=O)N(c1ccc(-c3ccnc(-c4ccc(N5C(=O)c6ccc(C(=O)Cl)cc6C5=O)cc4)n3)cc1)C2=O [MIT 9952-42]
  ENDOHDL Test 1: 1.27
  ENDOHDL Test 2: 1.21

## O=C(/C=C/c1ccccc1)Nc1cccc(Cl)c1Cl [MIT 9952-263]
  ENDOHDL Test 1: 0.66
  ENDOHDL Test 2: 0.65

## [O-][n+]1onc2c3cc(-c4ccccc4)[nH]c3ccc21 [MIT 9952-59]
  ENDOHDL Test 1: 0.35
  ENDOHDL Test 2: 0.44

## CCS(=O)(=O)C(=C(Nc1ccc(OC)cc1)Nc1ccc(OC)cc1)S(=O)(=O)CC [MIT 9952-57]
  ENDOHDL Test 1: 1.13
  ENDOHDL Test 2: 1.25

## [O-][n+]1onc2c3cc(-c4ccccc4)[nH]c3ccc21 [MIT 9952-304]
[1]
  ENDOHDL Test 1: 0.35
  ENDOHDL Test 2: 0.44

## O=C(Nc1ccc(Cl)c([N+](=O)[O-])c1)c1cccc(C(=O)Nc2ccc(Cl)c([N+](=O)[O-])c2)c1 [MIT 9952-219]
  ENDOHDL Test 1: 0.55
  ENDOHDL Test 2: 0.55

## COc1ccccc1C(=O)NC(Nc1cccc2ccccc12)C(Cl)(Cl)Cl (stereo not shown) [MIT 9952-134]
  ENDOHDL Test 1: 0.58
  ENDOHDL Test 2: 0.59

## COc1ccc2[nH]cc(CCN3CCOC3=O)c2c1 [MIT 9952-205]
  ENDOHDL Test 1: 1.08
  ENDOHDL Test 2: 1.0

## O=C(N/N=C\c1cccn1-c1ccc([N+](=O)[O-])cc1)c1ccccc1 [MIT 9952-199]
  ENDOHDL Test 1: 0.52
  ENDOHDL Test 2: 0.46

## COc1ccc(NC(=O)c2cc([N+](=O)[O-])c(C)c([N+](=O)[O-])c2)cc1Cl [MIT 9952-226]
  ENDOHDL Test 1: 0.5
  ENDOHDL Test 2: 0.56

## CCCCC1(OC(=O)Nc2ccc(Cl)cc2)CCCCC1 [MIT 9952-196]
  ENDOHDL Test 1: 0.63
  ENDOHDL Test 2: 0.6

## O=C1C(=O)c2ccc(Oc3ccc([N+](=O)[O-])cc3)c3cccc1c23 [MIT 9952-95]
  ENDOHDL Test 1: 0.79
  ENDOHDL Test 2: 0.73

## O=[N+]([O-])c1ccc(-c2sc(/N=C/c3c(O)ccc4ccccc34)nc2-c2ccc(Cl)cc2)cc1 [MIT 9952-286]
[1]
  ENDOHDL Test 1: 0.62
  ENDOHDL Test 2: 0.64

## CC(C)c1ccc(NC(=O)/C=C/c2cccc([N+](=O)[O-])c2)cc1 [MIT 9952-274]
  ENDOHDL Test 1: 0.65
  ENDOHDL Test 2: 0.6

## COc1ccc(C(=O)NC(Nc2cccc3ccccc23)C(Cl)(Cl)Cl)cc1 (stereo not shown) [MIT 9952-131]
  ENDOHDL Test 1: 0.56
  ENDOHDL Test 2: 0.52

## O=C(NC(NC(=S)Nc1ccc2ccccc2c1)C(Cl)(Cl)Cl)c1cccc([N+](=O)[O-])c1 (stereo not shown) [MIT 9952-336]
[1]
  ENDOHDL Test 1: 0.54
  ENDOHDL Test 2: 0.58

## Cc1nc(-c2ccc([N+](=O)[O-])cc2)c(C(=O)Nc2ccccc2)s1 [MIT 9952-160]
  ENDOHDL Test 1: 0.48
  ENDOHDL Test 2: 0.55

## O=C(Nc1cccc(NC(=O)c2ccccc2Cl)c1)c1cccc([N+](=O)[O-])c1 [MIT 9952-213]
  ENDOHDL Test 1: 0.66
  ENDOHDL Test 2: 0.57

## CCN(CC(O)COc1ccccc1C(C)=O)S(=O)(=O)[O-].[Na+] (stereo not shown) [MIT 9952-250]
  ENDOHDL Test 1: 1.28
  ENDOHDL Test 2: 1.24

## COc1cc2c(-c3ccccc3)c(C)oc2cc1/C=N/NC(N)=S [MIT 9952-206]
  ENDOHDL Test 1: 0.56
  ENDOHDL Test 2: 0.52

## COc1ccccc1NC(=O)c1ccc(OC)c(OC)c1 [MIT 9952-269]
  ENDOHDL Test 1: 0.74
  ENDOHDL Test 2: 0.66

## C/C(CS(=O)(=O)c1ccccc1)=N/NC(N)=S [MIT 9952-271]
  ENDOHDL Test 1: 0.59
  ENDOHDL Test 2: 0.54

## O=C(N/N=C/c1ccc(O)cc1)C1CC1(c1ccccc1)c1ccccc1 (stereo not shown) [MIT 9952-87]
  ENDOHDL Test 1: 0.67
  ENDOHDL Test 2: 0.67

## NC(/N=N/c1ccccc1)=N\Nc1ccccc1 [MIT 9952-122]
  ENDOHDL Test 1: 0.55
  ENDOHDL Test 2: 0.82

## CC(=O)C1=C(C)NC(=S)NC1c1ccco1 (stereo not shown) [MIT 9952-264]
  ENDOHDL Test 1: 0.45
  ENDOHDL Test 2: 0.56

## COc1ccccc1NC(=O)Nc1ccc2ccccc2c1 [MIT 9952-149]
  ENDOHDL Test 1: 0.62
  ENDOHDL Test 2: 0.6

## CCN(CC)C(=O)N1CCN(c2ccc(Nc3ccnc4cc5ccccc5cc34)cc2)CC1 [MIT 9952-141]
  ENDOHDL Test 1: 0.63
  ENDOHDL Test 2: 0.77

## O=[N+]([O-])c1cccc(-c2ccc(C(=S)N3CCCCC3)o2)c1 [MIT 9952-282]
[1]
  ENDOHDL Test 1: 0.49
  ENDOHDL Test 2: 0.5

## O=C(CSC1=NCCN1)Nc1ccccc1 [MIT 9952-67]
  ENDOHDL Test 1: 0.55
  ENDOHDL Test 2: 0.54

## CCc1c2cccn2cc(C)[n+]1C.[I-] [MIT 9952-177]
  ENDOHDL Test 1: 0.68
  ENDOHDL Test 2: 0.49

## Nc1c(C(=O)c2ccc(Br)cc2)sc2nc(-c3ccccc3)c3c(c12)CCCC3 [MIT 9952-221]
  ENDOHDL Test 1: 0.62
  ENDOHDL Test 2: 0.59

## O=C(Nc1ccc2c(c1)S(=O)(=O)c1cc(NC(=O)c3cccc4ccccc34)ccc1-2)c1cccc2ccccc12 [MIT 9952-229]
  ENDOHDL Test 1: 0.58
  ENDOHDL Test 2: 0.58

## CCOC(=O)c1c(C)n(-c2ccc(C)cc2)c2ccc(O)cc12 [MIT 9952-73]
  ENDOHDL Test 1: 0.61
  ENDOHDL Test 2: 0.59

## Cc1ccc2c(c1Br)/C(=N/NC(=O)Nc1ccccc1)C(=O)N2 [MIT 9952-130]
  ENDOHDL Test 1: 0.62
  ENDOHDL Test 2: 0.65

## C/C(=N\NC(=O)c1ccc(-c2ccccc2)cc1)c1cccc(N)c1 [MIT 9952-164]
  ENDOHDL Test 1: 0.6
  ENDOHDL Test 2: 0.61

## CC(C)=C/C(=N\Nc1ccc([N+](=O)[O-])cc1[N+](=O)[O-])C1CC=CCC1 (stereo not shown) [MIT 9952-288]
[1]
  ENDOHDL Test 1: 0.59
  ENDOHDL Test 2: 0.52

## Clc1ccc(N2CCC/C2=N\c2c3c(nc4ccccc24)N(c2ccccc2)CC3)cc1Cl [MIT 9952-305]
[1]
  ENDOHDL Test 1: 0.67
  ENDOHDL Test 2: 0.6

## CC(F)(F)c1cccc(NC(=O)c2sc(-c3ccccc3)nc2-c2ccc([N+](=O)[O-])cc2)c1 [MIT 9952-166]
  ENDOHDL Test 1: 0.56
  ENDOHDL Test 2: 0.67

## C/C(=N\NC(N)=S)c1ccc[nH]1 [MIT 9952-309]
[1]
  ENDOHDL Test 1: 0.7
  ENDOHDL Test 2: 0.68

## Clc1ccc(-c2nc3ccc4ccccc4c3c3c2CCCC3)cc1 [MIT 9952-156]
  ENDOHDL Test 1: 0.57
  ENDOHDL Test 2: 0.62
